Source: patent publication US20230083012A1, “DIHYDROPYRIMIDINE DERIVATIVES AND USES THEREOF IN THE TREATMENT OF HBV INFECTION OR OF HBV-INDUCED DISEASES” (priority 2019, published 2023)

Columns and labels:
[1] = Cytotoxicity determination in HepG2.2.15 cells (CCK-8 cell viability); assay type: cell-based; details: human, 6 days treatment, CCK-8 assay, highest concentration 100 uM
Experimental: (§1) HepG2.2.15 (the HepG2.2.15 cell line can be produced by transfection of the HepG2 cell line as described in Sells, Chen, and Acs 1987 (Proc. Natl. Acad. Sci. USA 84: 1005-1009), and the HepG2 cell line is available from ATCC® under number HIB-8065™)
(§2) HepG2.2.15 cells were plated into 96-well plate in 2% FBS culture medium at the density of 40,000 cells/well and 5,000 cells/well for HBV inhibitory activity and cytotoxicity determination, respectively. After incubation at 37° C., 5% CO2 overnight, cells were treated with medium containing compounds for 6 days with medium and compounds refreshed after 3 days of treatment. Each compound was tested in a 1:3 serial dilutions at 8 different concentrations in triplicate. The highest concentration of the compounds was 10 uM or 1 uM for anti-HBV activity assay and 100 uM for cytotoxicity determination.
Cell viability was determined by CCK-8 assay. After 6 days of compounds treatment, 20 μl CCK-8 reagents were added to each well of cytotoxicity assay plates. Cell plates were incubated at 37° C., 5% CO2 for 2.5 h. The absorbance at 450 nm wavelength and the absorbance at 630 nm wavelength as reference was measured.
(§3) 2) DATA Analysis EC50 and CC50 values are calculated by the GRAPTIPAD PRISM software.

HBV = experiment: Anti-HBV activity in HepG2.2.15 cells (HBV DNA in culture medium by qPCR); assay type: cell-based; details: Hepatitis B virus, HepG2.2.15, 144 h, HepG2.2.15 cells, 6 days treatment, HBV DNA in culture medium quantified by real-time PCR; read-out: EC50
Experimental: Example 2: Anti-Viral Assay in HepG2.2.15 Cells
as §1, §2
The change of HBV DNA level induced by the compounds was assessed by quantitative real-time polymerase chain reaction (qPCR). Briefly, the HBV DNA in the culture medium was extracted using QIAamp 96 DNA Blood Kit according to the manual and then quantified by real-time PCR assay using the primers and probe in the table 2 below.
as §3

SMILES | CC50 at 6 days [1] [nM] | EC50 (HBV) [nM]
CCOC(=O)C1=C(CN2CC(F)(F)[C@H]3[C@@H]2CCN3CC(C)(C)C(=O)O)NC(c2nccs2)=N[C@H]1c1cccc(F)c1C (relative stereo) [Compound 1A, 3-(4-(((S)-5-(ethoxycarbonyl)-6-(3-fluoro-2-methylphenyl)-2-(thiazol-2-yl)-3,6-dihydropyrimidin-4-yl)methyl)-6,6-difluorohexahydropyrrolo[3,2-b]pyrrol-1(2H)-yl)-2,2-dimethylpropanoic acid] | 15000 | 1.3
CCOC(=O)C1=C(CN2CC[C@]3(F)C(=O)N(CC(C)(C)C(=O)O)C[C@H]23)NC(c2nccs2)=N[C@H]1c1cccc(F)c1C (relative stereo) [Compound 3B, 3-(1-(((S)-5-(ethoxycarbonyl)-6-(3-fluoro-2-methylphenyl)-2-(thiazol-2-yl)-3,6-dihydropyrimidin-4-yl)methyl)-3a-fluoro-4-oxohexahydropyrrolo[3,4-b]pyrrol-5(1H)-yl)-2,2-dimethylpropanoic acid] | 51800 | 38.7
CCOC(=O)C1=C(CN2CC[C@H]3C(=O)N(CC(C)(C)C(=O)O)C(=O)[C@H]32)NC(c2nccs2)=N[C@H]1c1cccc(F)c1C (relative stereo) [Compound 4A, 3-(1-(((S)-5-(ethoxycarbonyl)-6-(3-fluoro-2-methylphenyl)-2-(thiazol-2-yl)-3,6-dihydropyrimidin-4-yl)methyl)-4,6-dioxohexahydropyrrolo[3,4-b]pyrrol-5(1H)-yl)-2,2-dimethylpropanoic acid] | 32600 | 6.3
CCOC(=O)C1=C(CN2CC(F)(F)[C@@H]3C(=O)N(CC(C)(C)C(=O)O)C[C@@H]32)NC(c2nccs2)=N[C@H]1c1cccc(F)c1C (relative stereo) [Compound 5A, 3-(1-(((S)-5-(ethoxycarbonyl)-6-(3-fluoro-2-methylphenyl)-2-(thiazol-2-yl)-3,6-dihydropyrimidin-4-yl)methyl)-3,3-difluoro-4-oxohexahydropyrrolo[3,4-b]pyrrol-5(1H)-yl)-2,2-dimethylpropanoic acid] | 70400 | 8.2
CCOC(=O)C1=C(CN2CC(F)(F)[C@H]3[C@@H]2CCN3CC2(C(=O)O)CC2)NC(c2nccs2)=N[C@H]1c1cccc(F)c1C (relative stereo) [Compound 38A, 1-((4-(((S)-5-(ethoxycarbonyl)-6-(3-fluoro-2-methylphenyl)-2-(thiazol-2-yl)-3,6-dihydropyrimidin-4-yl)methyl)-6,6-difluorohexahydropyrrolo[3,2-b]pyrrol-1(2H)-yl)methyl)cyclopropane-1-carboxylic acid] | 20000 | 1.5
CCOC(=O)C1=C(CN2CC(F)(F)[C@H]3[C@@H]2CCN3C2CC(C(=O)O)C2)NC(c2nccs2)=N[C@H]1c1cccc(F)c1C (relative stereo) [Compound 39A, 3-(4-(((S)-5-(ethoxycarbonyl)-6-(3-fluoro-2-methylphenyl)-2-(thiazol-2-yl)-3,6-dihydropyrimidin-4-yl)methyl)-6,6-difluorohexahydropyrrolo[3,2-b]pyrrol-1(2H)-yl)cyclobutane-1-carboxylic acid] | 35000 | 2.4
CCOC(=O)C1=C(CN2CC(F)(F)[C@H]3[C@@H]2CCN3CC2(CC(=O)O)CC2)NC(c2nccs2)=N[C@H]1c1cccc(F)c1C (relative stereo) [Compound 49, 2-(1-((4-(((S)-5-(ethoxycarbonyl)-6-(3-fluoro-2-methylphenyl)-2-(thiazol-2-yl)-3,6-dihydropyrimidin-4-yl)methyl)-6,6-difluorohexahydropyrrolo[3,2-b]pyrrol-1(2H)-yl)methyl)cyclopropyl)-acetic acid] | 25500 | 32.6
CCOC(=O)C1=C(CN2CC(F)(F)[C@@H]3[C@H]2CN(C)N3CCC(C)(C)C(=O)O)NC(c2nccs2)=N[C@H]1c1cccc(F)c1C (relative stereo) [Compound 68A, 4-(4-(((S)-5-(ethoxycarbonyl)-6-(3-fluoro-2-methylphenyl)-2-(thiazol-2-yl)-3,6-dihydropyrimidin-4-yl)methyl)-6,6-difluoro-2-methylhexahydropyrrolo[3,2-c]pyrazol-1(2H)-yl)-2,2-dimethylbutanoic acid] | 22200 | 7.4
CCOC(=O)C1=C(CN2CC(F)(F)[C@@H]3[C@H]2CON3CCC(C)(C)C(=O)O)NC(c2nccs2)=N[C@H]1c1cccc(F)c1C (relative stereo) [Compound 69A, 4-(4-(((S)-5-(ethoxycarbonyl)-6-(3-fluoro-2-methylphenyl)-2-(thiazol-2-yl)-3,6-dihydropyrimidin-4-yl)methyl)-6,6-difluorohexahydro-1H-pyrrolo[3,2-c]isoxazol-1-yl)-2,2-dimethylbutanoic acid] | 37000 | 0.7
CCOC(=O)C1=C(CN2CC(F)(F)[C@H]3[C@@H]2CN(CC(C)(C)C(=O)O)N3C)NC(c2nccs2)=N[C@H]1c1cccc(F)c1C (relative stereo) [Compound 87, 3-((cis)-4-(((S)-5-(ethoxycarbonyl)-6-(3-fluoro-2-methylphenyl)-2-(thiazol-2-yl)-3,6-dihydropyrimidin-4-yl)methyl)-6,6-difluoro-1-methylhexahydropyrrolo[3,2-c]pyrazol-2(1H)-yl)-2,2-dimethylpropanoic acid] | > 50000 | 14
CCOC(=O)C1=C(CN2CC(F)(F)[C@H]3[C@@H]2CCN3CCC(C)(C)C(=O)O)NC(c2ncoc2C)=N[C@@H]1c1cccc(F)c1C (relative stereo) [Compound 107, 4-(4-((5-(ethoxycarbonyl)-6-(3-fluoro-2-methylphenyl)-2-(5-methyloxazol-4-yl)-3,6-dihydropyrimidin-4-yl)methyl)-6,6-difluorohexahydropyrrolo[3,2-b]pyrrol-1(2H)-yl)-2,2-dimethylbutanoic acid] | 42500 | 11.3
CCOC(=O)C1=C(CN2CC(F)(F)[C@H]3[C@@H]2CCN3CC[C@H]2C[C@@H]2C(=O)O)NC(c2nccs2)=N[C@H]1c1cccc(F)c1C (relative stereo) [Compound 110, (trans)-2-(2-((cis)-4-(((S)-5-(ethoxycarbonyl)-6-(3-fluoro-2-methylphenyl)-2-(thiazol-2-yl)-3,6-dihydropyrimidin-4-yl)methyl)-6,6-difluorohexahydropyrrolo[3,2-b]pyrrol-1(2H)-yl)ethyl)cyclopropane-1-carboxylic acid] | 23500 | 0.6
CCOC(=O)C1=C(CN2CC(F)(F)[C@H]3[C@@H]2CCN3CCC(C)(C)C(=O)O)NC(c2nccs2)=N[C@@H]1c1ccc(F)nc1C (relative stereo) [Compound 121, 4-((cis)-4-(((R)-5-(ethoxycarbonyl)-6-(6-fluoro-2-methylpyridin-3-yl)-2-(thiazol-2-yl)-3,6-dihydropyrimidin-4-yl)methyl)-6,6-difluorohexahydropyrrolo[3,2-b]pyrrol-1(2H)-yl)-2,2-dimethylbutanoic acid] | > 100000 | 8.7
CCOC(=O)C1=C(CN2CC(F)(F)[C@@H]3[C@H]2CCN3CC(=O)O)NC(c2nccs2)=N[C@H]1c1cccc(F)c1C (single isomer, unassigned) [Compound 6A] | 30400 | 3.6
CCOC(=O)C1=C(CN2CC(F)(F)[C@H]3[C@@H]2CCN3CC(=O)O)NC(c2nccs2)=N[C@H]1c1cccc(F)c1C (single isomer, unassigned) [Compound 6B] | 34700 | 382
CCOC(=O)C1=C(CN2CC(F)(F)[C@H]3[C@@H]2CCN3CC(=O)NS(C)(=O)=O)NC(c2nccs2)=N[C@H]1c1cccc(F)c1C (single isomer, unassigned) [Compound 8A] | 36300 | 6.9
CCOC(=O)C1=C(CN2CC(F)(F)[C@@H]3CN(C(=O)C(C)(C)C(=O)O)C[C@@H]32)NC(c2nccs2)=N[C@H]1c1cccc(F)c1C (single isomer, unassigned) [Compound 9A] | 57800 | 11.1
CCOC(=O)C1=C(CN2CC(F)(F)[C@@H]3CN(C(=O)C4(C(=O)O)CC4)C[C@@H]32)NC(c2nccs2)=N[C@H]1c1cccc(F)c1C (single isomer, unassigned) [Compound 10] | 69600 | 80.5
CCOC(=O)C1=C(CN2C[C@H](F)[C@H]3[C@@H]2CCN3CC(C)(C)C(=O)O)NC(c2nccs2)=N[C@H]1c1cccc(F)c1C (single isomer, unassigned) [Compound 11B] | 30000 | 31.4
CCOC(=O)C1=C(CN2CC(F)(F)[C@@H]3CN(CC(C)(C)C(=O)O)C[C@@H]32)NC(c2nccs2)=N[C@H]1c1cccc(F)c1C (single isomer, unassigned) [Compound 12B] | 86100 | 8.2
CCOC(=O)C1=C(CN2CC(F)(F)[C@@H]3CN(CC(C)(C)C(=O)O)C(=O)[C@@H]32)NC(c2nccs2)=N[C@H]1c1cccc(F)c1C (single isomer, unassigned) [Compound 13B] | 38600 | 3.5
